Experimental data from US20100305140A1, “BENZIMIDAZOLE DERIVATIVES WHICH ARE TO BE USED AS ANTAGONIST FOR THE CB1-RECEPTOR” (AstraZeneca AB, priority 2006, published 2010).

How the values were obtained:
[1] = target: T1, Human CB1 receptor (hCB1) (Homo sapiens, UniProt P21554); test: hCB1 GTPγS binding; format: biochemical; settings: human CB1 receptor membranes, GTPγ35S; for EC50: unit inferred; for Emax: maximal stimulated binding determined with 10 μM Win 55,212-2
T1 construct: purchased Receptor Biology
T1 sequence (P21554 whole entry): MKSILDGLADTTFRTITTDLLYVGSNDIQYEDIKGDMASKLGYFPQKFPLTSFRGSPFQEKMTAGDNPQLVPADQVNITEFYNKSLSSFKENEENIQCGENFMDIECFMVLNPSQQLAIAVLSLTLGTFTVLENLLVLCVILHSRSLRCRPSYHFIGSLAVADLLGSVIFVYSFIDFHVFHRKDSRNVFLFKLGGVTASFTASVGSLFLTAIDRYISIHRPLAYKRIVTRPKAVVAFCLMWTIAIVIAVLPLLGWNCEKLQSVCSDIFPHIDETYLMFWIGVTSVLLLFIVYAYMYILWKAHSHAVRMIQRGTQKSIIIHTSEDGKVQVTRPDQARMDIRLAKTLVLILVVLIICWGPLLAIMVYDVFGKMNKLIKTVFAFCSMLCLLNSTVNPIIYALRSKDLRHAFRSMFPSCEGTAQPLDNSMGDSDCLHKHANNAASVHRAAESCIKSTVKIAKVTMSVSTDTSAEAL
Protocol: hCB1 and hCB2 GTPγS Binding
Human CB1 receptor from Receptor Biology (hCB1) or human CB2 receptor membranes (BioSignal) are thawed at 37° C., passed 3 times through a 25-gauge blunt-end needle and diluted in the GTPγS binding buffer (50 mM Hepes, 20 mM NaOH, 100 mM NaCl, 1 mM EDTA, 5 mM MgCl2, pH 7.4, 0.1% BSA). The EC50 and Emax of the compounds of the invention are evaluated from 10-point dose-response curves done in 300 μl with the appropriate amount of membrane protein and 100000-130000 dpm of GTPg^35S per well (0.11-0.14 nM). The basal and maximal stimulated binding is determined in absence and presence of 1 μM (hCB2) or 10 μM (hCB1) Win 55,212-2 respectively. The membranes are pre-incubated for 5 minutes with 56.25 μM (hCB2) or 112.5 μM (hCB1) GDP prior to distribution in plates (15 μM (hCB2) or 30 μM (hCB1) GDP final). The plates are vortexed and incubated for 60 minutes at room temperature, filtered on Unifilters GF/B (presoaked in water) with the Tomtec or Packard harvester using 3 ml of wash buffer (50 mM Tris, 5 mM MgCl2, 50 mM NaCl, pH 7.0). The filters are dried for 1 hour at 55° C. The radioactivity (cpm) is counted in a TopCount (Packard) after adding 65 μl/well of MS-20 scintillation liquid. Antagonist reversal studies are done in the same way except that (a) an agonist dose-response curve is done in the presence of a constant concentration of antagonist, or (b) an antagonist dose-response curve is done in the presence of a constant concentration of agonist.

[2] = target: T1, Human CB1 receptor (hCB1); test: hCB1 receptor binding (3H-CP55,940 displacement); settings: human CB1 receptor membranes
Protocol: hCB1 and hCB2 Receptor Binding
Human CB1 receptor from Receptor Biology (hCB1) or human CB2 receptor from BioSignal (hCB2) membranes are thawed at 37° C., passed 3 times through a 25-gauge blunt-end needle, diluted in the cannabinoid binding buffer (50 mM Tris, 2.5 mM EDTA, 5 mM MgCl2, and 0.5 mg/mL BSA fatty acid free, pH 7.4) and aliquots containing the appropriate amount of protein are distributed into 96-well plates. The IC50 of the compounds of the invention at hCB1 and hCB2 are evaluated from 10-point dose-response curves done with ^3H-CP55,940 at 20000 to 25000 dpm per well (0.17-0.21 nM) in a final volume of 300 μl. The total and non-specific binding are determined in the absence and presence of 0.2 μM of HU210 respectively. The plates are vortexed and incubated for 60 minutes at room temperature, filtered through Unifilters GF/B (presoaked in 0.1% polyethyleneimine) with the Tomtec or Packard harvester using 3 mL of wash buffer (50 mM Tris, 5 mM MgCl2, 0.5 mg BSA pH 7.0). The filters are dried for 1 hour at 55° C. The radioactivity (cpm) is counted in a TopCount (Packard) after adding 65 μl/well of MS-20 scintillation liquid.
Based on the above assays, the dissociation constant (Ki) for a particular compound of the invention towards a particular receptor is determined using the following equation: […]

| SMILES | EC50 [1] [µM] | Emax [1] [%] | Ki [2] [µM] |
| --- | --- | --- | --- |
| Cc1cc(NC(=O)C2CCN(C(=O)c3ccc4c(c3)nc(C(C)(C)C)n4CC3CCC(F)(F)CC3)CC2)no1 | 1.77 | 132 |  |
| CC(C)(C)c1nc2cc(C(=O)N3CCC(C(=O)NC4CC4)CC3)ccc2n1CC1CCC(F)(F)CC1 | 0.0167 | 115 | 0.0192 |
| CC(C)(C)c1nc2cc(C(=O)N3CCC(C(=O)NC4CC4)CC3)ccc2n1CC1CCCCC1 | 0.0377 | 134 | 0.0238 |
